Experimental data taken from patent US12343319B2, “Compositions and methods for treatment of diseases and disorders” (Atai Therapeutics Inc., priority 2023, dated 2025).

Experiments:
5-HT2B = target: T1, 5-HT2B (Homo sapiens, UniProt P41595); test: Radioligand binding, 5-HT2B; conditions: for Max % inhibition: radioligand binding, human 5-HT2B
T1 construct: expressed in transfected cells

5-HT2A [1] = test: IPOne, 5-HT2A; type: cell-based, human; conditions: IPOne, human; calculated using ΔΔlog(Emax/EC50), reference = 1
Method: (§1) In vitro pharmacology studies were performed to evaluate the effects of compound 2-1 on functional activity of several 5-HT receptors using recombinant target overexpression cell culture systems. The effect of compound 2-1 on G protein-dependent signaling was investigated at 5-HT2A, 5-HT2B, and 5-HT2C receptors with calcium mobilization and IPOne assays; and at 5-HT1A, 5-HT1B, 5-HT1F, 5-HT5A, and 5-HT7D receptors with a cAMP assay. G protein-independent signaling was investigated at the 5-HT2A receptor with a β-Arrestin assay.
(§2) In vitro pharmacology studies were performed to evaluate the effects of compound 2-2 on functional activity at several 5-HT receptors using recombinant target overexpression cell culture systems. The effect of compound 2-2 on G protein-dependent signaling was investigated at 5-HT2A, 5-HT2B, and 5-HT2C receptors with calcium mobilization and IPOne assays; and at 5-HT1A, 5-HT1B, 5-HT1F, 5-HT5A, and 5-HT7D receptors with a cAMP assay. G protein-independent signaling was investigated at the 5-HT2A receptor with a β-arrestin assay. […] In Table 4, 5-HT receptor selectivity was calculated using ΔΔlog(Emax/EC50). Assay reference α-Me-5-HT or 5-HT was used for normalization at each receptor (5-HT2A/5-HT2B selectivity=1; 5-HT2A/5-HT2C selectivity=1). ND in Table 4 indicates, not determined, plateau was not reached within the concentration range tested to determine Emax.

5-HT1A = target: T2, 5-HT1A (Homo sapiens, UniProt P08908); test: cAMP, 5-HT1A; type: cell-based
T2 construct: expressed in transfected cells
T2 sequence (P08908 1-422): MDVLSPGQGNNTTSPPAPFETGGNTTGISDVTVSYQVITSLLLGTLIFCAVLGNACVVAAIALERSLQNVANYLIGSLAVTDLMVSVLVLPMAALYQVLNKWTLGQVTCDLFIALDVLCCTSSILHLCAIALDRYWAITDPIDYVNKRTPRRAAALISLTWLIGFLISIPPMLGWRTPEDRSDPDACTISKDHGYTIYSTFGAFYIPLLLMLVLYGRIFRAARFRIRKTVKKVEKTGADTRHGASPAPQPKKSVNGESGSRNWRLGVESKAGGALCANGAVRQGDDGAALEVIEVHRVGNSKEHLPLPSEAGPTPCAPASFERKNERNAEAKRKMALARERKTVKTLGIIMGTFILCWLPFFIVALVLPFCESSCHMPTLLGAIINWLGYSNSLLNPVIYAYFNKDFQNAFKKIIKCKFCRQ
Method: as §1, §2

5-HT1B = target: T3, 5-HT1B (Homo sapiens, UniProt P28222); test: cAMP, 5-HT1B; type: cell-based
T3 construct: expressed in transfected cells
T3 sequence (P28222 whole entry): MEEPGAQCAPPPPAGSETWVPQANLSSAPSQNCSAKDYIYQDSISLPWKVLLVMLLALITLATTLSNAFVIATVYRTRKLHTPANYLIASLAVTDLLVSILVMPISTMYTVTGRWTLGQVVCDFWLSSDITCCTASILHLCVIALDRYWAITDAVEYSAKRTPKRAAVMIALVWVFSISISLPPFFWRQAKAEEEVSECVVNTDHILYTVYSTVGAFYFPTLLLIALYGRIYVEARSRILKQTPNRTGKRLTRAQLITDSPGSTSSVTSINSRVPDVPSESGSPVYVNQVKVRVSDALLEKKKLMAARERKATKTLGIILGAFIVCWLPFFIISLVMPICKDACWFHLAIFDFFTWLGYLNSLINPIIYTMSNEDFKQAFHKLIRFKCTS
Method: as §1, §2

5-HT1F = target: T4, 5-HT1F (Homo sapiens, UniProt P30939); test: cAMP, 5-HT1F; type: cell-based
T4 construct: expressed in transfected cells
T4 sequence (P30939 1-366): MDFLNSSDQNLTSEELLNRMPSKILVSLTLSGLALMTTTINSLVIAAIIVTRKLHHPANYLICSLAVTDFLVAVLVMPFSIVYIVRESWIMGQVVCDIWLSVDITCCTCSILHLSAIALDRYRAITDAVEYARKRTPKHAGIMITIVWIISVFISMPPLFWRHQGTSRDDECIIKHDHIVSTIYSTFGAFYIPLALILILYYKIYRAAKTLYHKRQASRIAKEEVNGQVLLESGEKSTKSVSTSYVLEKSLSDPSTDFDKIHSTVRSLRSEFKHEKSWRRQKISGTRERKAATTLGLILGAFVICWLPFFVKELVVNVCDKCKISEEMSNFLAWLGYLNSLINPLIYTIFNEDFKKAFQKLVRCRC
Method: as §1, §2

5-HT5A = target: T5, 5-HT5A (Homo sapiens, UniProt P47898); test: cAMP, 5-HT5A; type: cell-based
T5 construct: expressed in transfected cells
T5 sequence (P47898 whole entry): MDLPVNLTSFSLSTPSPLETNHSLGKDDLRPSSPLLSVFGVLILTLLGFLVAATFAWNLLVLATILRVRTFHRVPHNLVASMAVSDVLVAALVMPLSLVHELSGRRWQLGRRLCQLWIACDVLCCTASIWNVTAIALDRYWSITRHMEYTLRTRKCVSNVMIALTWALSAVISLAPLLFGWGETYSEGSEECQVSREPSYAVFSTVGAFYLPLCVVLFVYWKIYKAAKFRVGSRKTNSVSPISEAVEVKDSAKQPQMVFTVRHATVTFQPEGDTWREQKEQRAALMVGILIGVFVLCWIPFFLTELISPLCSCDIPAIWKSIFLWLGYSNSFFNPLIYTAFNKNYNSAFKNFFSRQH
Method: as §1, §2

5-HT2A (rat) = 5-HT2A (rat) (Rattus norvegicus, UniProt P14842); test: IPOne, rat 5-HT2A; type: cell-based; conditions: for Emax / 5-HT2A/5-HT2B Selectivity (rat): IPOne; for Emax: rat 5-HT2A, read-out: Emax (% α-Me-5-HT); for 5-HT2A/5-HT2B Selectivity (rat): rat receptors
5-HT2A (rat), sequence (P14842 whole entry): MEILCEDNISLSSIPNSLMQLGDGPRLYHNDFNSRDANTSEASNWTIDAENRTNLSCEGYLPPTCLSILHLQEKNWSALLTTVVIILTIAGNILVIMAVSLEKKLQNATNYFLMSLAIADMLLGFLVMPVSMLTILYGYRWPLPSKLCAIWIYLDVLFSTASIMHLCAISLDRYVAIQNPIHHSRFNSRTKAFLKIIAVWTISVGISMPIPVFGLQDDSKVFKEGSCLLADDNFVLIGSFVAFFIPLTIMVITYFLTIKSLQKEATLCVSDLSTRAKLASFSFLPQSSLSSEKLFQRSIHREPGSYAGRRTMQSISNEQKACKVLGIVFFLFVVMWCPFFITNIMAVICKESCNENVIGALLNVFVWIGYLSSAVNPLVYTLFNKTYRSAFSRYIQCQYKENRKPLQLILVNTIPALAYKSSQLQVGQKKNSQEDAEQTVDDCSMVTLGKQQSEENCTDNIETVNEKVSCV
From the text: (§3) Overall, in vitro activity at rodent 5-HT2A and 5-HT2B receptors is consistent with the human receptor results, with compound 2-1 acting as a potent and selective 5-HT2A agonist.
(§4) Overall, in vitro activity at rodent 5-HT2A and […] receptors is consistent with the human receptor results, with compound 2-2 acting as a potent and selective 5-HT2A agonist. In Table 5, ND indicates not determined.

5-HT2B (rat) = 5-HT2B (rat) (Rattus norvegicus, UniProt P30994); test: IPOne, rat 5-HT2B; type: cell-based
5-HT2B (rat), sequence (P30994 whole entry): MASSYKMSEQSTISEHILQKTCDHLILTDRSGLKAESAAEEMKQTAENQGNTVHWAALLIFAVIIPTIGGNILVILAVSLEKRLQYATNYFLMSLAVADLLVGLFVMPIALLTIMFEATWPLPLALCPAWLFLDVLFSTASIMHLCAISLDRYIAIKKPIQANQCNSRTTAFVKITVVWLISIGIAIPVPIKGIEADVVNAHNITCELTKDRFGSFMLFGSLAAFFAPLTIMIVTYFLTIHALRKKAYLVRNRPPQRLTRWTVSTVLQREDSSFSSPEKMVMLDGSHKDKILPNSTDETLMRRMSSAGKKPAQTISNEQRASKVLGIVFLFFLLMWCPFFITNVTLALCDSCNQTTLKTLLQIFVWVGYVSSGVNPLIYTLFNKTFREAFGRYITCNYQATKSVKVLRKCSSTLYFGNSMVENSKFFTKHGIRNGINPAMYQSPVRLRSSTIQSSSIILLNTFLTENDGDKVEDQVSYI
From the text: as §3, §4

5-HT2A (mouse) = 5-HT2A (mouse) (Mus musculus, UniProt P35363); test: β-Arrestin, mouse 5-HT2A; type: cell-based; conditions: for Emax: β-Arrestin, mouse 5-HT2A, read-out: Emax (%5-HT)
5-HT2A (mouse), sequence (P35363 whole entry): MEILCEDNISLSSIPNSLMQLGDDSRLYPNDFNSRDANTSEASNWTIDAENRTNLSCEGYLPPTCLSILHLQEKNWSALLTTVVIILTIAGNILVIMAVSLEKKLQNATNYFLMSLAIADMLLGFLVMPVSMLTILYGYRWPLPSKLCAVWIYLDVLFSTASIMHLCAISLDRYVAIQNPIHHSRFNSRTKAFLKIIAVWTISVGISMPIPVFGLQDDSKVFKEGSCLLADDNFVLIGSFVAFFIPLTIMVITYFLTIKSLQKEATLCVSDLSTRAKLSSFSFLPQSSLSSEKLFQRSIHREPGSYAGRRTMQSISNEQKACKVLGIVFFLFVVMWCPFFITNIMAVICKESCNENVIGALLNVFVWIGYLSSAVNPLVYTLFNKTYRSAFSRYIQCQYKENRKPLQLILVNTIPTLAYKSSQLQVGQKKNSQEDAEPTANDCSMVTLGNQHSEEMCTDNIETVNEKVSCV
From the text: as §3, §4

5-HT2A [2] = target: T6, 5-HT2A (Homo sapiens, UniProt P28223); test: Ca++ (calcium mobilization), 5-HT2A; type: cell-based; set-up: expressed in transfected cells; conditions: for Emax: read-out: Emax (%5-HT)
T6 sequence (P28223 whole entry): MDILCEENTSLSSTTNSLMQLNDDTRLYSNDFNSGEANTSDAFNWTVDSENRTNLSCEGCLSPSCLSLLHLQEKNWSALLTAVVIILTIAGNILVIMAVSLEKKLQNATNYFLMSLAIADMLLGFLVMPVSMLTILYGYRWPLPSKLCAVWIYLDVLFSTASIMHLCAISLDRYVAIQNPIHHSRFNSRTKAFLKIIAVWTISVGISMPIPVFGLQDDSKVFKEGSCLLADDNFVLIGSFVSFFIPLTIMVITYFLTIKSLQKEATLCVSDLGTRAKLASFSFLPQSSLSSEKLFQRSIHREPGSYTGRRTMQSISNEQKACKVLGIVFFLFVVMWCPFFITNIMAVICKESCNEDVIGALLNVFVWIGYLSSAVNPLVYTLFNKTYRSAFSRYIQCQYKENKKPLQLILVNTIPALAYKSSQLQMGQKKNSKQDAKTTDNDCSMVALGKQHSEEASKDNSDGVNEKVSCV
Method: as §1, §2

5-HT2A [3] = target: T6, 5-HT2A; test: β-Arrestin, 5-HT2A; type: cell-based; set-up: expressed in transfected cells; conditions: for Emax: read-out: Emax (%5-HT)
Method: as §1, §2

T1 sequence (P41595 whole entry): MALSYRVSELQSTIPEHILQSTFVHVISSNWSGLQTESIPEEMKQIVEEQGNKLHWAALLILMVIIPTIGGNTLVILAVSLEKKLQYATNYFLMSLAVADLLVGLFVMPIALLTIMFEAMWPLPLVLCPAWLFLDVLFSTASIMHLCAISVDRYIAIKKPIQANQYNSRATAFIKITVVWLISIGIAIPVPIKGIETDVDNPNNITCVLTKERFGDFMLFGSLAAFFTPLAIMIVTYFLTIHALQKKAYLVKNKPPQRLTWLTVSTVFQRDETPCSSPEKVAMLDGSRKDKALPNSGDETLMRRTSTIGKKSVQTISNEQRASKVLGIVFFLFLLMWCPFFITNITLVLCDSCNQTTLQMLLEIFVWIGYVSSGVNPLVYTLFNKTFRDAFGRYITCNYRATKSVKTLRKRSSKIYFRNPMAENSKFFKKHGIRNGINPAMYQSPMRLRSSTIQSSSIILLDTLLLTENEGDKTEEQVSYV

| SMILES | IC50 (5-HT2B) [nM] | Max % inhibition (5-HT2B) [%] | 5-HT2A/5-HT2B Selectivity (5-HT2A [1]) | EC50 (5-HT1A) [nM] | EC50 (5-HT1B) [nM] | EC50 (5-HT1F) [nM] | EC50 (5-HT5A) [nM] | EC50 (5-HT2A (rat)) [nM] | Emax (5-HT2A (rat)) [%] | 5-HT2A/5-HT2B Selectivity (rat) (5-HT2A (rat)) | EC50 (5-HT2B (rat)) [nM] | EC50 (5-HT2A (mouse)) [nM] | Emax (5-HT2A (mouse)) [%] | EC50 (5-HT2A [2]) [nM] | Emax (5-HT2A [2]) [%] | EC50 (5-HT2A [3]) [nM] | Emax (5-HT2A [3]) [%] | other results |
| --- | --- | --- | --- | --- | --- | --- | --- | --- | --- | --- | --- | --- | --- | --- | --- | --- | --- | --- |
| COc1ccc(OC)c(CCNCc2cc(C)cc(Cl)c2)c1 [Compound 2-1, N-(3-chloro-5-methylbenzyl)-2-(2,5-dimethoxyphenyl)ethan-1-amine] | 84.9 | 102.5 | 160 | > 20000 | > 100000 | > 9000 | 25.2 | 3.06 | 99.5 | >100000 | > 1000 | 4.37 | 65 | 4.24 | 93.3 | 17.2 | 89.3 | Emax (5-HT5A; cAMP, human 5-HT5A, read-out: Emax (%5-HT)): 44.4%; agonist activity (in words) (5-HT5A; human 5-HT5A receptor): partial agonist activity; agonist activity (in words) (5-HT2A (rat); rat 5-HT2A receptor): full agonist activity; agonist activity (in words) (5-HT2B (rat); rat 5-HT2B receptor): inactive |
| COc1ccc(OC)c(CCNCc2cc(C)cc(F)c2)c1 [Compound 2-2, 2-(2,5-dimethoxyphenyl)-N-(3-fluoro-5-methylbenzyl)ethan-1-amine] | 321 | 99.56 | 177 | > 1000 | > 100000 | > 25000 | > 30000 | 7.2 | 105 | >100000 | > 1000 | 21.8 | 60.2 | 9 | 88 | 25.8 | 82.1 |  |
